From patent US8633186B2, “Modulation of chemosensory receptors and ligands associated therewith” (Senomyx Inc., priority 2007, dated 2014)

Tested on: human panelists (perceived sweetness intensity)
Assay: Sweet flavor and sweet flavor enhancement, human panelists, scaling test
Format: in vivo
Parameters: key: 0-15 line scale; 0 = no sweetness, 15 = 15% sucrose sweetness
Conditions: for Average Sweetness: Table 28, n = 28
Source text: Test samples containing experimental compounds were compared to a dose-response curve for perceived sweetness intensity of sweeteners (such as, for example, sucralose, sucrose, fructose and other sweeteners) concentrations to determine equivalent sweetness intensity.
A group of eight or more panelists tasted solutions including sweeteners at various concentrations, as well as the experimental compound both with and without added sweetener. Panelists then rated sweetness intensity of all samples on a structured horizontal line scale, anchored from 0 to 15, where 0 equals no sweetness and 15 equals equivalent sweetness to a 15% sucrose sample. Scores for sweetness intensity were averaged across panelists. Then using the average scores and/or equation of the line for the sweetener dose-response curve, equivalent sweetness concentrations were determined for the samples containing experimental compounds.
Subjects had been previously familiarized with the key attribute taste and were trained to use the 0 to 15 point line scale. Subjects refrained from eating or drinking (except water) for at least 1 hour prior to the test. Subjects ate a cracker and rinsed with water several times to clean the mouth.
Sweetener solutions are provided at a wide range of concentrations such as 100 ppm, 200 ppm, 300 ppm, 400 ppm, and 500 ppm for sucralose, or between 0% and 12% for sucrose or fructose, in order to create a dose-response curve. Samples containing experimental compound were prepared both alone and in a 100 ppm sucralose solution or a 6% sucrose or fructose solution. All samples were made up in low sodium buffer pH 7.1. In order to aid dispersion, solutions can be made up in 0.1% ethanol.
The solutions were dispensed in 20 ml volumes into 1 oz. sample cups and served to the subjects at room temperature. All samples were presented in randomized counterbalanced order to reduce response bias. Further, two sessions of testing may be used to check panel precision.
Subjects tasted each sample individually and rate sweetness intensity on the line scale prior to tasting the next sample. All samples were expectorated. Subjects may retaste the samples but can only use the volume of sample given. Subjects must rinse with water between samples. Eating an unsalted cracker between samples may be required depending on the samples tasted.
The scores for each sample were averaged across subjects and standard error was calculated. The dose-response curve was plotted graphically, and this may be used to ensure the panel is rating accurately; i.e., increasing the concentration of sucralose should correspond to increased average scores for sweetness. A 2-way ANOVA (factors being samples and panelists) and multiple comparison tests (such as Tukey's Honestly Significant Difference test) can be used to determine differences among samples and/or panelists. A 3-way ANOVA, with sessions as the third factor, can be used to determine if there is any difference in the ratings between sessions.

Compound: CCc1sc2[nH]c(=O)nc(N)c2c1C [Example 7, 4-Amino-6-ethyl-5-methylthieno[2,3-d]pyrimidin-2(1H)-one]
- Average sweetness score (line scale 0 to 15) (Table 2, 100 μM compound alone in low sodium buffer): 0.1

Compound: OC[C@H]1O[C@H](O[C@]2(CCl)O[C@H](CCl)[C@@H](O)[C@@H]2O)[C@H](O)[C@@H](O)[C@H]1Cl [Sucralose, sucralose]
- Average sweetness score (line scale 0 to 15) (Table 1, 100 ppm sucralose alone): 6.3
- Average sweetness score (line scale 0 to 15) (Table 1, 200 ppm sucralose alone): 10.4
- Average sweetness score (line scale 0 to 15) (Table 1, 300 ppm sucralose alone): 11.5
- Average sweetness score (line scale 0 to 15) (Table 1, 400 ppm sucralose alone): 12.3
- Average sweetness score (line scale 0 to 15) (Table 3, 100 ppm sucralose alone): 7.4
- Average sweetness score (line scale 0 to 15) (Table 3, 200 ppm sucralose alone): 10.4
- Average sweetness score (line scale 0 to 15) (Table 3, 300 ppm sucralose alone): 10.5
- Average sweetness score (line scale 0 to 15) (Table 3, 400 ppm sucralose alone): 11.2
- Average sweetness score (line scale 0 to 15) (Table 3, 600 ppm sucralose alone): 13.0
- Average sweetness score (line scale 0 to 15) (Table 4, 100 ppm sucralose alone): 6.3
- Average sweetness score (line scale 0 to 15) (Table 4, 200 ppm sucralose alone): 9.5
- Average sweetness score (line scale 0 to 15) (Table 4, 300 ppm sucralose alone): 10.3
- Average sweetness score (line scale 0 to 15) (Table 4, 400 ppm sucralose alone): 12.1
- Average sweetness score (line scale 0 to 15) (Table 6, 100 ppm sucralose alone): 6.5
- Average sweetness score (line scale 0 to 15) (Table 6, 200 ppm sucralose alone): 9.1
- Average sweetness score (line scale 0 to 15) (Table 6, 300 ppm sucralose alone): 10.8
- Average sweetness score (line scale 0 to 15) (Table 6, 400 ppm sucralose alone): 11.2
- Average sweetness score (line scale 0 to 15) (Table 17, 100 ppm sucralose alone): 6.5
- Average sweetness score (line scale 0 to 15) (Table 17, 200 ppm sucralose alone): 9.0
- Average sweetness score (line scale 0 to 15) (Table 17, 300 ppm sucralose alone): 10.9
- Average sweetness score (line scale 0 to 15) (Table 17, 400 ppm sucralose alone): 12.3
- Average Sweetness (50 ppm sucralose alone): 4.3
- Average Sweetness (100 ppm sucralose alone): 6.2
- Average Sweetness (150 ppm sucralose alone): 8.2
- Average Sweetness (200 ppm sucralose alone): 8.9
- Average Sweetness (300 ppm sucralose alone): 10.3
